# “And” between values parts separate entries of the source, which are not always exact repeats. Equal values may be shown once. Read-outs that look alike come from different tables or passages of the source.
# Tests used:
# [1] = Single administration dose escalation study (MTD, body weight, clinical observations), female CD1 mice; type: in vivo; details: for Body weight change, Mean / Body weight change: day 7 vs initial weight; for Body weight change, Mean: group mean; for MTD at 7 days: mouse, in vivo, female CD1 mice
# Description: Mice were dosed on day 1 and clinical condition recorded at 0.5 h, 2 h, 4 h, 6 h, and days 1–7 (S6 Table).
# Gc - general condition observation
# X - treatment with compound or vehicle
# [2] = system: ES2 cells; assay: Reactive oxygen species, Amplex Red/HRP; details: 12 h
# [3] = system: cellular DUB enzymes; assay: Total cellular DUB activity, Ub-AMC cleavage, SKOV3 cells; details: 5 μM, 1 h
smiles,measurement,setting,value
N#Cc1ccc(/C=C2/C(=O)/C(=C/c3ccc(C#N)cc3)C23CCNCC3)cc1 [Up284],Body weight,"[1]; IV 60 mg/kg single dose, day 4, individual mice, 60 mg/kg",26.6 g and 23.5 g and 24.7 g
same,"Body weight, Mean","[1]; IV 60 mg/kg single dose, day 5, group mean",24.83 g
same,Body weight,"[1]; IV 60 mg/kg single dose, day 5, individual mice, 60 mg/kg",26.5 g and 23.3 g and 24.7 g
same,"Body weight, Mean","[1]; IV 60 mg/kg single dose, day 6, group mean",25.30 g
same,Body weight,"[1]; IV 60 mg/kg single dose, day 6, individual mice, 60 mg/kg",26.7 g and 24.1 g and 25.1 g
same,"Body weight, Mean","[1]; IV 60 mg/kg single dose, day 7, group mean",25.27 g
same,Body weight,"[1]; IV 60 mg/kg single dose, day 7, individual mice, 60 mg/kg",26.6 g and 23.9 g and 25.3 g
same,"Body weight change, Mean",[1]; IV 60 mg/kg single dose,3.48%
same,Body weight change,"[1]; IV 60 mg/kg single dose, individual mice, 60 mg/kg",2.31% and 5.29% and 2.85%
same,Clinical observation,"[1]; IV 60 mg/kg, day 0, 0.5 h, individual mice, 60 mg/kg",0
same,Clinical observation,"[1]; IV 60 mg/kg, day 0, 2 h, individual mice",0
same,Clinical observation,"[1]; IV 60 mg/kg, day 0, 4 h, individual mice",0
same,Clinical observation,"[1]; IV 60 mg/kg, day 0, 6 h, individual mice",0
same,Clinical observation,"[1]; IV 60 mg/kg, day 0, time 0, individual mice",0
same,Clinical observation,"[1]; IV 60 mg/kg, day 1, individual mice",0
same,Clinical observation,"[1]; IV 60 mg/kg, day 2, individual mice",0
same,Clinical observation,"[1]; IV 60 mg/kg, day 3, individual mice",0
same,Clinical observation,"[1]; IV 60 mg/kg, day 4, individual mice",0
same,Clinical observation,"[1]; IV 60 mg/kg, day 5, individual mice",0
same,Clinical observation,"[1]; IV 60 mg/kg, day 6, individual mice",0
same,Clinical observation,"[1]; IV 60 mg/kg, day 7, individual mice",0
same,"Body weight, Mean","[1]; PO 100 mg/kg single dose, day 0, group mean",24.70 g
same,Body weight,"[1]; PO 100 mg/kg single dose, day 0, individual mice, 100 mg/kg",27.5 g and 24.7 g and 21.9 g
same,"Body weight, Mean","[1]; PO 100 mg/kg single dose, day 1, group mean",24.30 g
same,Body weight,"[1]; PO 100 mg/kg single dose, day 1, individual mice, 100 mg/kg",26.4 g and 24.4 g and 22.1 g
same,"Body weight, Mean","[1]; PO 100 mg/kg single dose, day 2, group mean",24.77 g
same,Body weight,"[1]; PO 100 mg/kg single dose, day 2, individual mice, 100 mg/kg",27.0 g and 24.5 g and 22.8 g
same,"Body weight, Mean","[1]; PO 100 mg/kg single dose, day 3, group mean",25.10 g
same,Body weight,"[1]; PO 100 mg/kg single dose, day 3, individual mice, 100 mg/kg",27.2 g and 25.0 g and 23.1 g
same,"Body weight, Mean","[1]; PO 100 mg/kg single dose, day 4, group mean",25.30 g
same,Body weight,"[1]; PO 100 mg/kg single dose, day 4, individual mice, 100 mg/kg",27.9 g and 24.5 g and 23.5 g
same,"Body weight, Mean","[1]; PO 100 mg/kg single dose, day 5, group mean",24.77 g
same,Body weight,"[1]; PO 100 mg/kg single dose, day 5, individual mice, 100 mg/kg",26.9 g and 24.4 g and 23.0 g
same,"Body weight, Mean","[1]; PO 100 mg/kg single dose, day 6, group mean",25.50 g
same,Body weight,"[1]; PO 100 mg/kg single dose, day 6, individual mice, 100 mg/kg",28.4 g and 25.0 g and 23.1 g
same,"Body weight, Mean","[1]; PO 100 mg/kg single dose, day 7, group mean",26.10 g
same,Body weight,"[1]; PO 100 mg/kg single dose, day 7, individual mice, 100 mg/kg",29.3 g and 25.6 g and 23.4 g
same,"Body weight change, Mean",[1]; PO 100 mg/kg single dose,5.68%
same,Body weight change,"[1]; PO 100 mg/kg single dose, individual mice, 100 mg/kg",6.55% and 3.64%
same,Clinical observation,"[1]; PO 100 mg/kg, day 0, 0.5 h, individual mice",0
same,Clinical observation,"[1]; PO 100 mg/kg, day 0, 2 h, individual mice",0
same,Clinical observation,"[1]; PO 100 mg/kg, day 0, 4 h, individual mice",0
same,Clinical observation,"[1]; PO 100 mg/kg, day 0, 6 h, individual mice",0
same,Clinical observation,"[1]; PO 100 mg/kg, day 0, time 0, individual mice",0
same,Clinical observation,"[1]; PO 100 mg/kg, day 1, individual mice",0
same,Clinical observation,"[1]; PO 100 mg/kg, day 2, individual mice",0
same,Clinical observation,"[1]; PO 100 mg/kg, day 3, individual mice",0
same,Clinical observation,"[1]; PO 100 mg/kg, day 4, individual mice",0
same,Clinical observation,"[1]; PO 100 mg/kg, day 5, individual mice",0
same,Clinical observation,"[1]; PO 100 mg/kg, day 6, individual mice",0
same,Clinical observation,"[1]; PO 100 mg/kg, day 7, individual mice",0
same,"Body weight, Mean","[1]; PO 200 mg/kg single dose, day 0, group mean",24.70 g
same,"Body weight, Mean","[1]; PO 200 mg/kg single dose, day 1, group mean",24.90 g
same,"Body weight, Mean","[1]; PO 200 mg/kg single dose, day 2, group mean",25.17 g
same,"Body weight, Mean","[1]; PO 200 mg/kg single dose, day 3, group mean",25.07 g
same,"Body weight, Mean","[1]; PO 200 mg/kg single dose, day 4, group mean",25.40 g
same,"Body weight, Mean","[1]; PO 200 mg/kg single dose, day 5, group mean",25.33 g
same,"Body weight, Mean","[1]; PO 200 mg/kg single dose, day 6, group mean",25.63 g
same,"Body weight, Mean","[1]; PO 200 mg/kg single dose, day 7, group mean",25.87 g
same,Body weight,"[1]; PO 200 mg/kg single dose, day 7, individual mice, 200 mg/kg",26.3 g
same,"Body weight change, Mean",[1]; PO 200 mg/kg single dose,4.87%
same,Body weight change,"[1]; PO 200 mg/kg single dose, individual mice, 200 mg/kg",8.68% and 0.00% and 5.93%
same,Clinical observation,"[1]; PO 200 mg/kg, day 0, 0.5 h, individual mice",0
same,Clinical observation,"[1]; PO 200 mg/kg, day 0, 2 h, individual mice",0
same,Clinical observation,"[1]; PO 200 mg/kg, day 0, 4 h, individual mice",0
same,Clinical observation,"[1]; PO 200 mg/kg, day 0, 6 h, individual mice",0
same,Clinical observation,"[1]; PO 200 mg/kg, day 0, time 0, individual mice",0
same,Clinical observation,"[1]; PO 200 mg/kg, day 1, individual mice",0
same,Clinical observation,"[1]; PO 200 mg/kg, day 2, individual mice",0
same,Clinical observation,"[1]; PO 200 mg/kg, day 3, individual mice",0
same,Clinical observation,"[1]; PO 200 mg/kg, day 4, individual mice",0
same,Clinical observation,"[1]; PO 200 mg/kg, day 5, individual mice",0
same,Clinical observation,"[1]; PO 200 mg/kg, day 6, individual mice",0
same,Clinical observation,"[1]; PO 200 mg/kg, day 7, individual mice",0
same,MTD at 7 days,"[1]; ip, read-out: MTD, single IP dose",40 mg/kg
same,MTD at 7 days,"[1]; iv, read-out: MTD, single IV dose (not reached at maximum feasible dose)",≥ 60 mg/kg
same,MTD at 7 days,"[1]; po, read-out: MTD, single PO dose (not reached at maximum feasible dose)",≥ 200 mg/kg
same,reactive oxygen species,[2],elevated levels of reactive oxygen species
same,total lysate DUB enzymatic activity (Ub-AMC),[3],No reduction
